Measurements: paper PMC9304322, “Targeting retinoic acid receptor alpha-corepressor interaction activates chaperone-mediated autophagy and protects against retinal degeneration” (Nature Communications, 2022)
Several values for one entry are separate records, joined by “and”; a condition that tells them apart may be missing. Identical values can stand only once.

How the values were obtained:
[1] = system: NIH3T3 cells stably expressing the mCherry-GFP-LC3 reporter; assay: Macroautophagy activity, mCherry-GFP-LC3 reporter; type: cell-based, mouse; conditions: for effect on macroautophagy: NIH3T3, MRT-sensitive proteolysis, LC3-II flux, mCherry-GFP-LC3 reporter
Description: Cells were transduced with a lentiviral vector expressing mCherry-GFP-LC3[35], fixed and flux determined as the conversion of dual fluorescence puncta (autophagosomes) into only red fluorescent puncta (autolysosomes). Flux was also measured by immunoblot for LC3 in cells incubated for 6 h with 20 mM NH4Cl/100 μM leupeptin, by discounting the intensity of LC3 in non-treated cells from that in cells treated with the inhibitors.

[2] = system: CMA network components in NIH3T3 cells; assay: qPCR of CMA network components and CMA activation score;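 for AKT1 mRNA level: fold of untreated cells after 20 µM for 24 h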;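 for AKT2 mRNA level: fold of untreated cells after 20 µM for 24 h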;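 for CTSA mRNA level: fold of untreated cells after 20 µM for 24 h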;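 for HSC70 mRNA level: fold of untreated cells after 20 µM for 24 h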;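 for HSP40 mRNA level: fold of untreated cells after 20 µM for 24 h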;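 for HSP90AA1 mRNA level: fold of untreated cells after 20 µM for 24 h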;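 for HSP90AB1 mRNA level: fold of untreated cells after 20 µM for 24 h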;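 for LAMP2A mRNA level: fold of untreated cells after 20 µM for 24 h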;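 for NCOR1 mRNA level: fold of untreated cells after 20 µM for 24 h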;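 for NFATC1 mRNA level: fold of untreated cells after 20 µM for 24 h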;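 for NFE2L2 mRNA level: fold of untreated cells after 20 µM for 24 h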;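 for PHLPP1 mRNA level: fold of untreated cells after 20 µM for 24 h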;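 for RAB11A mRNA level: fold of untreated cells after 20 µM for 24 h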;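 for RAC1 mRNA level: fold of untreated cells after 20 µM for 24 h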;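 for RARa mRNA level: fold of untreated cells after 20 µM for 24 h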; type: cell-based, mouse; design: LAMP2A mRNA level / HSP90AB1 mRNA level / HSP40 mRNA level / RAC1 mRNA level / AKT1 mRNA level / AKT2 mRNA level / CTSA mRNA level / NFATC1 mRNA level / HSC70 mRNA level / NCOR1 mRNA level / NFE2L2 mRNA level / RAB11A mRNA level / RARa mRNA level / HSP90AA1 mRNA level / EEF1A1 mRNA level / RICTOR mRNA level: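 fold of untreated cells after 20 µM for 24 h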; key to CMA activation score: weighted (LAMP-2A ×2), directed (±1) average of CMA network expression; conditions: for AKT1 mRNA level / AKT2 mRNA level / CTSA mRNA level / EEF1A1 mRNA level / HSC70 mRNA level / HSP40 mRNA level / HSP90AA1 mRNA level / HSP90AB1 mRNA level / LAMP2A mRNA level / NCOR1 mRNA level / NFATC1 mRNA level / NFE2L2 mRNA level / PHLPP1 mRNA level / RAB11A mRNA level / RAC1 mRNA level / RARa mRNA level / RICTOR mRNA level: Fig. 2d (left), one sample t test; for AKT1 mRNA level / AKT2 mRNA level / CTSA mRNA level / EEF1A1 mRNA level / HSC70 mRNA level / HSP40 mRNA level / HSP90AA1 mRNA level / HSP90AB1 mRNA level / LAMP2A mRNA level / NCOR1 mRNA level / NFATC1 mRNA level / NFE2L2 mRNA level / PHLPP1 mRNA level / RAB11A mRNA level / RAC1 mRNA level / RARa mRNA level / RICTOR mRNA level / CMA activation score: individual replicate values; for CMA activation score: Fig. 2d (right)
Description: RNA was extracted from individual retinas or tissue sections (brain, liver). Total RNA from retinas was extracted using TRIzol Reagent (Invitrogen, # 15596-018), and reverse transcription was performed using the High-Capacity cDNA Reverse Transcription Kit (Applied Biosystems, # 4374966) according to the manufacturer’s instructions. Quantitative real-time PCR was performed in a Light Cycler 480 Instrument (Roche) with Taqman LightCycler 480 probes Master Mix (Roche, #4887301001) using Taqman assays (Life Technologies). For cells in culture, RNA was extracted using RNeasy Plus Mini Kit (Qiagen, #74034), and reverse transcription was performed using Superscript III (Invitrogen, #18080051). Quantitative RT-PCR analysis were performed using Power SYBR Green PCR Master Mix (Applied Biosystems, #4368708) on a StepOne Plus Real-Time PCR System (Applied Biosystems). Mm01184405_m1 probe (Thermofisher) was used for rhodopsin and the sequence of all the other probes used for qPCR is included in Supplementary Table 2.
CMA index[14] was calculated using data set from[23]–[25]. Briefly, each element of the CMA network[13] has attributed a weight. As LAMP-2A is the rate-limiting component of CMA, it was given a weight of 2. Every other element received a weight of 1. Then, every element was attributed direction score that is +1 or −1 based on the known effect of a given element on CMA activity. The score was then calculated as the weighted/ directed average of expression counts of every element of the CMA network.

[3] = system: primary human fibroblast expressing the KFERQ-PS-Dendra reporter; assay: CMA activity, KFERQ-PS-Dendra reporter in primary human fibroblasts; type: cell-based; design: key to CMA activity, mean (Fig. S2c): puncta per cell; conditions: for CMA activation in human cells: in words
Description: Cells were transduced with lentivirus carrying the KFERQ-PS-Dendra reporter as before. Cells were photoactivated by exposure to a 3.5 mA (current constant) light emitting diode (LED: Norlux, 405 nm) for 3 min and then plated in glass-bottom 96 well plates. At the desired times, cells were fixed with 4% PFA and imaged using high-content microscopy (Operetta system, Perkin Elmer). Images were quantified using the manufacturer’s software in a minimum of 1,200 cells in 9 independent fields per well. […] This was particularly important in the case of primary human cells where the efficiency of transduction was ~65%. To avoid confounding effects for drug-induced changes in cell volume or adherence to the plate that could bring a fraction of the cells per field outside of focus, we set a threshold to count only […] that have at least 1/10 of the average number of […] detected in the untreated wells for each cell type (3–4 puncta/cell in the case of NIH3T3 and N2a cells and 5 puncta/cell in primary human fibroblasts).

[4] = c0 = 2 (axis unlabelled; ANOVA calls row factor Time)

## Cc1ccc(C2=Nc3ccc(Cl)cc3OC2)cc1 [AR7, reference compound]
[1]
  effect on macroautophagy: did not have the inhibitory effect on macroautophagy
[1]; [4]
  APG (Fig. S3e): 0.9242
  AUT (Fig. S3e): 2.505
  AV (Fig. S3e): 3.429
[1]; c0 = 5 (axis unlabelled)
  APG (Fig. S3e): 0.8222
  AUT (Fig. S3e): 2.321
  AV (Fig. S3e): 3.1431
[1]; c0 = 10 (axis unlabelled)
  APG (Fig. S3e): 0.7738
  AUT (Fig. S3e): 2.246
  AV (Fig. S3e): 3.0194
[1]; c0 = 15 (axis unlabelled)
  APG (Fig. S3e): 0.7216
  AUT (Fig. S3e): 2.244
  AV (Fig. S3e): 2.965
[1]; c0 = 20 (axis unlabelled)
  APG (Fig. S3e): 0.9029
  AUT (Fig. S3e): 2.059
  AV (Fig. S3e): 2.962
[1]; c0 = 25 (axis unlabelled)
  APG (Fig. S3e): 0.9112
  AUT (Fig. S3e): 2.774
  AV (Fig. S3e): 3.685
[1]; c0 = 30 (axis unlabelled)
  APG (Fig. S3e): 0.9867
  AUT (Fig. S3e): 2.8387
  AV (Fig. S3e): 3.825
[1]; c0 = 40 (axis unlabelled)
  APG (Fig. S3e): 1.111
  AUT (Fig. S3e): 2.723
  AV (Fig. S3e): 3.834
[1]; c0 = 50 (axis unlabelled)
  APG (Fig. S3e): 0.7488
  AUT (Fig. S3e): 3.18
  AV (Fig. S3e): 3.929
[2]
  AKT1 mRNA level: 1.38 and 0.89 and 1.44 and 0.86 and 1.06 and 1.51 and 1.42
  AKT2 mRNA level: 1.44 and 0.97 and 1.15 and 0.87 and 1.19 and 1.60 and 1.34
  CTSA mRNA level: 1.25 and 1.34 and 1.07 and 0.82 and 1.13 and 1.21 and 1.33
  EEF1A1 mRNA level: 1.17 and 1.49 and 1.26 and 1.78 and 0.79 and 1.54
  HSC70 mRNA level: 1.32 and 1.34 and 1.36 and 1.12 and 1.37 and 1.41
  HSP40 mRNA level: 0.98 and 1.05 and 1.10 and 0.85 and 0.99 and 0.72 and 1.06
  HSP90AA1 mRNA level: 1.28 and 0.87 and 0.85 and 0.56 and 0.80 and 0.78 and 0.86
  HSP90AB1 mRNA level: 0.93 and 0.89 and 0.92 and 0.63 and 0.94 and 0.80
  LAMP2A mRNA level: 1.15 and 1.53 and 1.46 and 1.28 and 1.31 and 1.13 and 1.27
  NCOR1 mRNA level: 1.16 and 1.11 and 1.26 and 0.79 and 0.85 and 0.87 and 1.01
  NFATC1 mRNA level: 1.04 and 0.72 and 1.34 and 0.83 and 1.03 and 1.25 and 1.28
  NFE2L2 mRNA level: 1.81 and 0.87 and 0.79 and 0.50 and 0.68 and 0.86 and 1.01
  PHLPP1 mRNA level: 1.42 and 1.17 and 1.27 and 2.72 and 1.10 and 1.18 and 1.28
  RAB11A mRNA level: 1.10 and 1.22 and 1.00 and 0.72 and 0.93 and 1.01
  RAC1 mRNA level: 1.21 and 1.55 and 1.26 and 1.08 and 1.31 and 1.54 and 1.42
  RARa mRNA level: 0.99 and 0.33 and 1.02 and 0.95 and 0.90 and 0.86
  RICTOR mRNA level: 0.52 and 1.27 and 0.85 and 0.95 and 1.43
  CMA activation score: -0.03086 and 0.1313 and 0.07179 and -0.1523
[3]; concentration 0.02
  CMA activity, mean (Fig. S2c): 24.0456
[3]; concentration 0.2
  CMA activity, mean (Fig. S2c): 28.2677
[3]; concentration 2
  CMA activity, mean (Fig. S2c): 18.5469
[3]
  CMA activation in human cells: very discrete

## Clc1ccc2c(c1)OCC(c1ccc(-c3ccccc3)cc1)=N2 [CA39]
[1]
  effect on macroautophagy: did not have the inhibitory effect on macroautophagy
[1]; [4]
  APG (Fig. S3e): 3.494
  AUT (Fig. S3e): 0.8582
  AV (Fig. S3e): 4.352
[1]; c0 = 5 (axis unlabelled)
  APG (Fig. S3e): 2.288
  AUT (Fig. S3e): 1.522
  AV (Fig. S3e): 3.81
[1]; c0 = 10 (axis unlabelled)
  APG (Fig. S3e): 2.801
  AUT (Fig. S3e): 1.622
  AV (Fig. S3e): 4.423
[1]; c0 = 15 (axis unlabelled)
  APG (Fig. S3e): 3.21
  AUT (Fig. S3e): 1.42
  AV (Fig. S3e): 4.63
[1]; c0 = 20 (axis unlabelled)
  APG (Fig. S3e): 2.614
  AUT (Fig. S3e): 2.2085
  AV (Fig. S3e): 4.823
[1]; c0 = 25 (axis unlabelled)
  APG (Fig. S3e): 2.9327
  AUT (Fig. S3e): 2.406
  AV (Fig. S3e): 5.339
[1]; c0 = 30 (axis unlabelled)
  APG (Fig. S3e): 1.904
  AUT (Fig. S3e): 2.071
  AV (Fig. S3e): 3.975
[1]; c0 = 40 (axis unlabelled)
  APG (Fig. S3e): 3.037
  AUT (Fig. S3e): 2.167
  AV (Fig. S3e): 5.204
[1]; c0 = 50 (axis unlabelled)
  APG (Fig. S3e): 3.658
  AUT (Fig. S3e): 0.5267
  AV (Fig. S3e): 4.185
[2]
  AKT1 mRNA level: 1.27 and 1.30 and 1.45 and 1.16 and 1.03 and 1.84 and 1.28
  AKT2 mRNA level: 1.32 and 1.30 and 1.24 and 1.01 and 1.08 and 1.88 and 1.04
  CTSA mRNA level: 1.42 and 1.82 and 1.76 and 1.16 and 1.21 and 1.47 and 1.18
  EEF1A1 mRNA level: 1.63 and 1.19 and 0.99 and 1.36 and 0.64 and 1.12
  HSC70 mRNA level: 1.22 and 1.61 and 1.44 and 1.21 and 1.29 and 2.10 and 1.42
  HSP40 mRNA level: 1.09 and 1.23 and 1.16 and 0.96 and 0.74 and 1.03
  HSP90AA1 mRNA level: 1.17 and 1.01 and 0.95 and 0.86 and 0.74 and 0.72
  HSP90AB1 mRNA level: 1.00 and 0.99 and 0.98 and 1.04 and 0.83 and 0.75
  LAMP2A mRNA level: 1.75 and 1.44 and 1.56 and 1.42 and 1.32 and 1.48
  NCOR1 mRNA level: 1.09 and 1.39 and 1.22 and 0.82 and 0.71 and 0.95 and 0.89
  NFATC1 mRNA level: 1.14 and 1.53 and 1.30 and 0.80 and 1.03 and 1.25 and 1.28
  NFE2L2 mRNA level: 0.96 and 1.16 and 1.02 and 0.72 and 0.80 and 1.15 and 1.10
  PHLPP1 mRNA level: 1.27 and 1.65 and 1.69 and 3.21 and 1.20 and 1.48 and 1.51
  RAB11A mRNA level: 1.05 and 1.19 and 0.95 and 0.84 and 1.00 and 1.21 and 1.07
  RAC1 mRNA level: 1.38 and 1.77 and 1.43 and 1.78 and 1.31 and 1.54 and 1.42
  RARa mRNA level: 0.55 and 1.08 and 1.05 and 0.89 and 0.84 and 0.93 and 0.88
  RICTOR mRNA level: 1.22 and 1.28 and 0.83 and 0.86 and 1.60 and 1.10
  CMA activation score: 0.6107 and 0.1532 and -0.08737 and 0.08765
[2]; NIH3T3, 20μM for 24 h
  predicted CMA score compared to AR7: higher
[3]; concentration 0.02
  CMA activity, mean (Fig. S2c): 24.0456
[3]; concentration 0.2
  CMA activity, mean (Fig. S2c): 28.2677
[3]; concentration 2
  CMA activity, mean (Fig. S2c): 18.5469
[3]
  CMA activation in human cells: efficiently activated CMA
